According to patent publication US9987279B2, “Pharmaceutical composition for prevention and/or treatment of urinary incontinence” (ASTELLAS PHARMA INC., priority 2014, dated 2018):

Tests used:
[1] = test system: stress urinary incontinence; conditions: clinical study; cited from earlier work
[2] = test system: external urethral sphincter of extracted rat urethra; experiment: External urethral sphincter contractile response induced by transmural electrical stimulation using extracted rat urethra; conditions: extracted rat urethra strips, 10 or 30 μmol/L, 15 minutes after addition, transmural electrical stimulation 20 V, 20 Hz; FIG. 1
[3] = test system: SD female rats; experiment: Reaction increasing urethra internal pressure induced by electrical stimulation of rat pudendal nerve; format: in vivo; conditions: anesthetized SD female rats, 3 or 10 mg/kg intravenously, about three minutes after administration; FIG. 2
Description: Test to Evaluate Reinforcing Action of Compound A on Reaction Increasing Urethra Internal Pressure Induced by Electrical Stimulation of Rat Pudendal Nerve
SD female rats (Japan SLC, Inc.) having a body weight of 200-350 g were anesthetized with urethane (1.2 g/kg, sc; Sigma-Aldrich), and a catheter (PE-50; Becton Dickinson) was lodged in the jugular vein for administering the test substance. Laparotomies were performed, and the dome of the bladder was cut open to allow discharge of the urine in the bladder. A microchip pressure transducer catheter (3.5Fr; Millar Instruments) was inserted from the external urethral orifice toward the bladder to measure the urethra internal pressure. The rats were arranged prone, the back was cut open, and several left and right pudendal nerves were isolated and held in place with exciting electrodes. […] The average of the reactions increasing urethra internal pressure by electrical stimulation three times before administering the test substance was calculated as the level before administering the test substance, and the percentage of reaction increasing urethra internal pressure by electrical stimulation about three minutes after administering the test substance to the value before administering the test substance was calculated for each of the treatment groups.

[4] = test system: rat diaphragm myofibrils; conditions: cited from earlier work
[5] = test system: rat extensor digitorum longus muscle; conditions: rat extensor digitorum longus muscle including a fast-muscle component; cited from earlier work
[6] = test system: rat diaphragm; conditions: in vitro, transmural electrical stimulation; cited from earlier work
[7] = test system: rat extensor digitorum longus muscle; conditions: in vivo, electrical stimulation of the rat fibular nerve; cited from earlier work
[8] = preclinical study; cited from earlier work

CCOc1ccccc1O[C@@H](c1ccccc1)[C@@H]1CNCCO1 [(S,S)-reboxetine]
efficacy on stress urinary incontinence [1]: effective for stress urinary incontinence | urethral resistance [1]: increased urethral resistance

NC(=O)c1ccn(-c2cnc(NC[C@]3(c4ncccc4F)C[C@H](F)C3)nc2)c1 [Compound A, 1-[2-({[trans-3-fluoro-1-(3-fluoropyridin-2-yl)cyclobutyl]methyl}amino)pyrimidin-5-yl]-1H-pyrrole-3-carboxamide]
contractile response of the external urethral sphincter after adding test substance relative to before adding [2]: reinforced contractile response of the external urethral sphincter | reaction increasing urethra internal pressure after administration relative to before administration [3]: reinforced a reaction increasing urethra internal pressure | shift of concentration-response curve of intracellular calcium ions concentration and muscle tension [4]: shift the concentration-response curve of intracellular calcium ions concentration and muscle tension to the left | shift of concentration-response curve of intracellular calcium ions concentration and muscle tension [5]: shift the concentration-response curve of intracellular calcium ions concentration and muscle tension to the left | contractile response of rat diaphragm [6]: reinforcing the contractile response of a rat diaphragm | extensor digitorum longus muscle contractile response [7]: reinforcing extensor digitorum longus muscle contractile response

CNCC[C@H](Oc1cccc2ccccc12)c1cccs1 [duloxetine]
adverse drug reactions [1]: undesirable adverse drug reactions such as suicide attempts were reported | efficacy on stress urinary incontinence [1]: effective on stress urinary incontinence

CNCCC(Oc1ccccc1OC)c1ccccc1 (stereo not drawn) [nisoxetine]
incontinence induced by sneezing [8]: improved incontinence induced by sneezing | urethra internal pressure [8]: increased urethra internal pressure
